Assay results: US20110184011A1, “Compounds” (SELCIA LIMITED, priority 2008, published 2011)

Tests used:
[1] = test system: IL-1β stimulated IL-8 secretion in human umbilical vein endothelial cells (HUVECs); assay: IL-1β stimulated IL-8 secretion assay in HUVEC cells (ELISA); type: cell-based; conditions: 0.5 ng/ml IL-1β; for inhibition at 1 µM: 1 μM compound, read-out: % Inhib at 1 μM; for inhibition at 1 µM / inhibition at 10 µM: IL-8 secretion; for inhibition at 10 µM: 10 μM compound, read-out: % Inhib at 10 μM; for IC50: 24 h, IL-8 ELISA
Procedure: Anti-inflammatory screening was established in human umbilical vein endothelial cells (HUVECs) to screen the test compounds for their ability to inhibit IL-1β stimulated IL-8 secretion from these cells. The level of secreted IL-8 in the HUVEC media was detected using a Quantikine™ Sandwich Enzyme-Linked Immunosorbent Assay (ELISA) from R&D Systems.
Cells and media were obtained from Cascade Biologics™ via Invitrogen. HUVECs were seeded in sterile 96-well tissue culture treated plates (0.1 ml per well, containing 2,400 cells; 8000 cells/cm^2). The seeded plates were incubated in a humidified incubator at 37 C/5% CO2. After 24 h, the media was replaced with fresh media (80 μl). The test compounds were serially diluted from 10 mM DMSO stocks with media to obtain dilutions 10× the final concentration. The compounds (10 μl) were added to the plates 30 min prior to the addition of 10 μl of 5 ng/ml stimulant IL-1β (final concentration 0.5 ng/ml). After incubating for 24 h, the plates were centrifuged at 200×g for 5 min (room temperature) and the media from each well transferred to a 96-well storage plate. Basal samples were assayed neat, but media from IL-1β stimulated cells was diluted in the calibrator diluent accompanying the IL-8 ELISA kit. The ELISA was performed according to the manufacturer's instructions.
A dose of 0.5 ng/ml IL-1β was chosen as a submaximal dose to observe the inhibition of IL-8 secretion with the test compounds.
Test compounds were initially screened at 10^−5M and 10^−6M for their ability to inhibit IL-1β stimulated IL-8 secretion (Table 1).

[2] = test system: IL-1β stimulated GM-CSF secretion in HUVECs; assay: IL-1β stimulated GM-CSF secretion in HUVECs (ELISA); type: cell-based, human; conditions: increasing doses of compound
Procedure: (§1) The HUVEC IL1β secretion assay was performed using a 24-well plate format similar to that described for IL-8 secretion above (0.5 ml per well containing 16,000 cells; 8000 cells/cm^2). Media was collected from untreated cells (basal) and cells treated with either 0.5 ng/ml IL-1β only, 10^−5M compound (2) only or IL-1β stimulated plus compound (2). Media from 2 wells were pooled for each condition.
(§2) Using the results of the protein array, the effect of compound (2) on the secretion of five other cytokines stimulated by IL-1β was also measured in HUVECs. These included: GROα, MCP-1, GM-CSF, sICAM-1 and IL-6. The HUVECs were seeded in sterile 24-well tissue culture treated plates (as described above). The cells were treated with increasing doses of compound (2) prior to stimulating with IL-1β as described above. All cytokines were measured using the appropriate Quantikine® Sandwich ELISA from R&D Systems according to the manufacturer's instructions.

[3] = test system: BALB/c mice, oxazolone-induced ear edema; assay: Mouse allergic contact dermatitis model induced by oxazolone, topical application, ear swelling; type: in vivo; conditions: for effect on inflammation in mouse allergic contact dermatitis model: topical application, 0.3-3 mg/ear x2, result in words
Procedure: BALB/c derived male mice, weighing 23±2 g were housed in individually ventilated cages racks (IVC Racks, 36 Mini Isolator systems) throughout the experiment. Five mice per group were kept in a cage (in cm, 26.7 length×20.7 width×14.0 height) and maintained under controlled temperature (21-23° C.) and humidity (50%-70%) with 12-hour light/dark cycles. The animals were given free access to sterilized lab chow and reverse osmosis (RO) water ad libitum. All aspects of this work, i.e. housing, experimentation and disposal of animals, are performed in general accordance with the Guide for the Care and Use of Laboratory Animals (National Academy Press, Washington, D.C., 1996).
Compound (2) was prepared as 150, 50 and 15 mg/ml in vehicle, acetone:ethanol/1:1. The preshaven abdomens of five groups of 5 BALB/c test mice were sensitized by application of 100 μL of 1.5% oxazolone solution dissolved in acetone. Seven days after the initial sensitization, test substance (0.3, 1 and 3 mg in 20 μl/ear) and vehicle (acetone:ethanol/1:1, 20 μL/ear) were each administered topically to the anterior and posterior surfaces of the right ear 30 minutes before and 15 minutes after challenge by the second application of oxazolone (1% in acetone, 20 μL/ear). As a positive control, dexamethasone (0.1 mg/ear) was administered topically using the same treatment regime as the test compound. Twenty-four hours after the second application of oxazolone, the ear thickness of each mouse was measured with a Dyer model micrometer gauge. Ear edema was calculated by subtracting the thickness of the left ear (normal control) from the right ear (treated ear). Percent inhibition was calculated according to the formula: [(Ic−It)/Ic]×100%, where Ic and It refer to increase of ear thickness (mm) in control and treated mice, respectively. A 30 percent or more (30%) inhibition in ear swelling relative to the vehicle control is considered significant and indicates possible anti-inflammatory activity.

[4] = test system: IL-1β stimulated IL-8 secretion in human umbilical vein endothelial cells (HUVECs); assay: IL-1β stimulated IL-8 secretion assay in HUVEC cells (ELISA); type: cell-based; conditions: 24-well format, increasing doses
[5] = test system: IL-1β stimulated MCP-1 secretion in HUVECs; assay: IL-1β stimulated MCP-1 secretion in HUVECs (ELISA); type: cell-based, human; conditions: increasing concentration of compound
Procedure: as §1, §2

[6] = Solubility of the topical formulation in vehicle acetone:ethanol/1:1; type: physicochemical; conditions: 150, 50 and 15 mg/ml in acetone:ethanol/1:1
[7] = test system: IL-1β stimulated GROα secretion in HUVECs; assay: IL-1β stimulated GROα secretion in HUVECs (ELISA); type: cell-based, human; conditions: increasing concentration of compound
Procedure: as §1, §2

[8] = test system: IL-1β stimulated IL-6 secretion in HUVECs; assay: IL-1β stimulated IL-6 secretion in HUVECs (ELISA); type: cell-based, human; conditions: increasing doses of compound
Procedure: as §1, §2

Structure (SMILES)	inhibition at 1 µM [1] [%]	inhibition at 10 µM [1] [%]	IC50 [1] [nM]	other results
NC(=O)c1cc(-c2cccnc2)n2c1CCCC2 [Compound 1, 3-pyridin-3-yl-5,6,7,8-tetrahydro-indolizine-1-carboxamide]	31.8	34.7		
NC(=O)c1c(Cl)c(-c2cccnc2)n2c1CCCC2 [Compound 2, 2-Chloro-3-pyridin-3-yl-5,6,7,8-tetrahydro-indolizine-1-carboxamide]	49.4	59.5	350	effect on IL-1β stimulated GM-CSF levels [2]: dose dependently decreased; inhibition of ear swelling relative to vehicle control ([3]; 0.3 mg/ear x2 topical, 30 min before and 15 min after oxazolone challenge, measured at 24 h): 25%; inhibition of ear swelling relative to vehicle control ([3]; 1 mg/ear x2 topical, 30 min before and 15 min after oxazolone challenge, measured at 24 h): 29%; inhibition of ear swelling relative to vehicle control ([3]; 3 mg/ear x2 topical, 30 min before and 15 min after oxazolone challenge, measured at 24 h): 40%; effect on inflammation in mouse allergic contact dermatitis model ([3]; listed as compound 2): not as potent as dexamethasone; effect on inflammation in mouse allergic contact dermatitis model ([3]; listed as compound (2)): dose dependently inhibited inflammation; effect on IL-1β stimulated IL-8 secretion [4]: inhibited IL-8 and GM-CSF to a similar extent; effect on IL-1β stimulated MCP-1 [5]: little effect; solubility of formulation [6]: not completely soluble; reduction of IL-1β stimulated GROα levels [7]: ~25%; effect on IL-1β stimulated IL-6 levels [8]: increased IL-6 levels further
Cc1ccncc1-c1cc(C#N)c2n1CCCC2 [Compound 3, 3-(4-Methyl-pyridin-3-yl)-5,6,7,8-tetrahydro-indolizine-1-carbonitrile]	34.4	35		
Cc1ccncc1-c1cc(C(N)=O)c2n1CCCC2 [Compound 4, 3-(4-Methyl-pyridin-3-yl)-5,6,7,8-tetrahydro-indolizine-1-carboxylic acid amide]	15.9	30.8		
NC(=O)c1c(Cl)c(-c2cccnc2)n2c1C(O)CCC2 (stereo not shown) [Compound 5, 2-Chloro-8-hydroxy-3-pyridin-3-yl-5,6,7,8-tetrahydro-indolizine-1-carboxylic acid amide]	29	52.4	760	
N#Cc1c(Cl)c(-c2cccnc2)n2c1C(O)CCC2 (stereo not shown) [Compound 6, 2-Chloro-8-hydroxy-3-pyridin-3-yl-5,6,7,8-tetrahydro-indolizine-1-carbonitrile]	52.2	21.8		
COC1CCCn2c(-c3cccnc3)c(Cl)c(C(N)=O)c21 (stereo not shown) [Compound 7, 2-Chloro-8-methoxy-3-pyridin-3-yl-5,6,7,8-tetrahydro-indolizine-1-carboxylic acid amide]	1.4	32.1		
Cc1ccncc1-c1c(Cl)c(C#N)c2n1CCCC2 [Compound 8, 2-Chloro-3-(4-Methyl-pyridin-3-yl)-5,6,7,8-tetrahydro-indolizine-1-carbonitrile]	5.5	39.6		
Cc1ccncc1-c1c(Cl)c(C(N)=O)c2n1CCCC2 [Compound 9, 2-Chloro-3-(4-methyl-pyridin-3-yl)-5,6,7,8-tetrahydro-indolizine-1-carboxylic acid amide]	42.2	49.6	510	
N#Cc1c(Cl)c(-c2cccnc2)n2c1C(=O)C(Cl)(Cl)CC2 [Compound 10, 2,7,7-Trichloro-8-oxo-3-pyridin-3-yl-5,6,7,8-tetrahydro-indolizine-1-carbonitrile]	18.8	35.7		
NC(=O)c1c(Cl)c(-c2cccnc2)n2c1C(=O)CCC2 [Compound 11, 2-Chloro-8-oxo-3-pyridin-3-yl-5,6,7,8-tetrahydro-indolizine-1-carboxylic acid amide]	32.9	31.7		
NC(=O)c1c(Cl)c(-c2cccnc2)n2c1C=CCC2 [Compound 12, 2-Chloro-3-pyridin-3-yl-5,6-dihydro-indolizine-1-carboxylic acid amide]	22.7	52.7	1600	
C[C@@H]1C[C@H]2[C@@H]3CCC4=CC(=O)C=C[C@]4(C)[C@@]3(F)[C@@H](O)C[C@]2(C)[C@@]1(O)C(=O)CO [dexamethasone, reference compound]				inhibition of ear swelling relative to vehicle control ([3]; 0.1 mg/ear topical, same regime, positive control): 72%
